The values below come from patent US20110263642A1, “METHODS FOR TREATMENT OF MULTIPLE SCLEROSIS” (FibroGen, Inc., priority 2008, published 2011).

Molecules are shown by their SMILES.

For the assay, the system named is EAE animal model of chronic progressive multiple sclerosis. Nature of the assay: Chronic progressive EAE induced by MOG35-55 and pertussis toxin in mice, neurological scoring to day 35. It is filed as in vivo, C57BL/6 mice. Particulars: for treated animals in which development of EAE disease was prevented / No. of Animals Showing No Disease Activity: through day 35. The text has this: A chronic progressive model of EAE is an accepted animal model of human chronic progressive multiple sclerosis (MS). In this model, induction of chronic progressive EAE occurs following injections of myelin oligodendrocyte glycoprotein (MOG). Approximately 8 to 14 days after injection of MOG, animals develop chronic progressive paralysis similar to that observed in humans with chronic progressive MS.
Female C57BL/6 mice (8-10 weeks old) were used in this study (Taconic Farm, CA). Compounds of the present invention were formulated in 0.5% carboxymethyl cellulose (CMC) with 0.1% Polysorbate 80 to achieve a final concentration of either 1.2 mg/ml or 4.0 mg/ml. FTY-720 was also formulated in 0.5% carboxymethyl cellulose (CMC) with 0.1% Polysorbate 80 to achieve a final concentration of 2.0 mg/ml.
Induction of chronic progressive EAE by injection with myelin oligodendrocyte glycoprotein (MOG) was performed as follows. Mice were injected subcutaneously with 200 μg of myelin oligodendrocyte glycoprotein (MOG35-55) peptide emulsion in both sides of their pectoral regions (50 μl each side). At 8 hours and 48 hr after immunization with MOG, animals were injected intraperitoneally with 400 ng of pertussis toxin (PT) in 100 μl of saline. Control mice received both injections with an equivalent volume of saline without MOG or PT.
[…] FTY-720 (10 mg/kg) was used in this study as a positive control and was administered daily from day 0 to day 35.
Neurological scoring was performed daily from day 7 to day 35 following MOG injection. Grading of disease severity (i.e., disease score) was based on the following observations performed by two different observers: 0=no abnormality; 1=distal weakness of the tail (limp tail); 2=limp tail and weakness of hind legs (mild paraparesis); 3=limp tail and complete paralysis of hind legs or paralysis in one of one front leg and one hind leg (moderate paraparesis); 4=limp tail, complete hind leg and partial front leg paralysis (moderate quadraparesis); 5=complete hind and front leg paralysis (moribund). Analysis of variance (ANOVA) was performed on data from the measured (neurological score) parameters. p value≦0.05 were considered significant.

Take `N#Cc1nc(C(=O)NCC(=O)O)c(O)c2c(Oc3ccccc3)cccc12` [Compound A, [(1-Cyano-4-hydroxy-5-phenoxy-isoquinoline-3-carbonyl)-amino]-acetic acid]: the “treated animals in which development of EAE disease was prevented” value is, setting by setting: (10 mg/kg as printed) 40%; (30 mg/kg as printed, p<0.05) 43%. Moreover, the “disease severity compared to vehicle-treated control EAE animals” value (10 mg/kg or 30 mg/kg as printed, p.o. three times a week, day 0-35, FIG. 5) is listed as “reduction in disease severity at all timepoints”. Also, the “No. of Animals Showing No Disease Activity” value was 6/15 (first EAE/Cmpd A row, dose not printed in Table 4 (Table 3: 6 mg/kg/d, 3 times a week)) and 6/14 (second EAE/Cmpd A row, dose not printed in Table 4 (Table 3: 20 mg/kg/d, 3 times a week)).
